This assay concerns the target human full-length MKNK1 (Homo sapiens (Human), UniProt Q9BUB5, T344D). In words: MKNK1 kinase high ATP assay (TR-FRET). The class given is biochemical. The settings on record: 2 mM ATP, 15 min preincubation with enzyme, GST-MKNK1 (T344D). Put shortly:
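GST-tagged full-length human MKNK1 (1-424, T344D, baculovirus-expressed) preincubated 15 min at 22 °C with compound, then reacted 30 min at 22 °C with 2 mM ATP and 0.06 μM biotinylated peptide (final) in HEPES pH 7.5. Phospho-substrate by TR-FRET (665/622 nm ratio), normalised to no-inhibitor and no-enzyme controls.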

The structures appear in SMILES notation.

Sequence of human full-length MKNK1 (Q9BUB5 other isoform, or with tags, fused parts or gaps T344D): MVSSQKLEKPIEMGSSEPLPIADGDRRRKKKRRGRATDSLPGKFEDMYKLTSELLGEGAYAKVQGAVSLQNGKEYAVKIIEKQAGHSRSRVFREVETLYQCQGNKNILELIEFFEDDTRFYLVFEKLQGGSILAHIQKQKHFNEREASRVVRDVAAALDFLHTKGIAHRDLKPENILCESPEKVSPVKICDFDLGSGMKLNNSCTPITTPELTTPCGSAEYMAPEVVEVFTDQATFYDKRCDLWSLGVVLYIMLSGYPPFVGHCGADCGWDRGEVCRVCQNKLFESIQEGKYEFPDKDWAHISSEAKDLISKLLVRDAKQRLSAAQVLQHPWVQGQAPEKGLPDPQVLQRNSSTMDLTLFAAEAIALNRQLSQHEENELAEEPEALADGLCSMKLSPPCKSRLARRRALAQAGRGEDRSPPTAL

In turn, `Cc1cc(Nc2ncnc(N)n2)c(=O)n2c1C(=O)N[C@]21CC[C@@](O)(C(F)(F)F)CC1` [Example 190, (cis)-6′-[(4-amino-1,3,5-triazin-2-yl)amino]-4-hydroxy-8′-methyl-4-(trifluoromethyl)-2′H-spiro[cyclohexane-1,3′-imidazo[1,5-a]pyridine]-1′,5′-dione] yielded an IC50 of 31.4 nM.
With `Cc1cc(Nc2ncnc3cccc(F)c23)c(=O)n2c1C(=O)NC21CCCCC1` [Example 41, 6′-[(5-Fluoroquinazolin-4-yl)amino]-8′-methyl-2′H-spiro[cyclohexane-1,3′-imidazo[1,5-a]pyridine]-1′,5′-dione] the figure was 14 nM.
In turn, `Cc1cc(Nc2ncnc3[nH]ccc23)c(=O)n2c1C(=O)NC21CCC(O)(C(F)(F)F)CC1` (centres unmarked) [Example 128, 4-Hydroxy-8′-methyl-6′-(7H-pyrrolo[2,3-d]pyrimidin-4-ylamino)-4-(trifluoromethyl)-2′H-spiro[cyclohexane-1,3′-imidazo[1,5-a]pyridine]-1′,5′-dione] displayed an IC50 of 1 nM.
For `Cc1cc(Nc2ncnc3ccccc23)c(=O)n2c1C(=O)NC21CCCC1` [Example 187, 8′-methyl-6′-[(quinazolin-4-yl)amino]-2′H-spiro[cyclopentane-1,3′-imidazo[1,5-a]pyridine]-1′,5′-dione], the IC50 stood at 7.3 nM.
`Cc1cc(Nc2ncnc3c2CN(S(=O)(=O)c2ccccn2)C3)c(=O)n2c1C(=O)NC21CCCCC1` [Example 79, 8′-Methyl-6′-{[6-(pyridin-2-ylsulfonyl)-6,7-dihydro-5H-pyrrolo[3,4-d]pyrimidin-4-yl]amino}-2′H-spiro[cyclohexane-1,3′-imidazo[1,5-a]pyridine]-1′,5′-dione] came in with a half-inhibitory concentration (IC50) of 122 nM.
